Measured values reported in ChEMBL document CHEMBL1201862, “PubChem BioAssay data set” (2004).
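Five concentrations, 48 hours, 96-well plates. The concentration for 50% growth inhibition is given as GI50.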 Activity calls are given as the source filed them. Cut-off read from the data, not from the text of the source: active = GI50 up to about 1.1 µM and inactive = higher.

How the values were obtained:
Test in all cases: inhibition of tumour cell growth, NCI panel, 48 h
OVCAR-3 = tested on: OVCAR-3
SK-OV-3 = tested on: SK-OV-3
IGROV-1 = tested on: IGROV-1
HCT-15 = tested on: HCT-15
A549 = tested on: A549
SN12C = tested on: SN12C
MOLT-4 = tested on: MOLT-4
HL-60 = tested on: HL-60
M14 = tested on: M14
SNB-75 = tested on: SNB-75
SNB-19 = tested on: SNB-19
SK-MEL-5 = tested on: SK-MEL-5
UACC-62 = tested on: UACC-62
OVCAR-4 = tested on: OVCAR-4
HOP-62 = tested on: HOP-62
NCI-H226 = tested on: NCI-H226
SK-MEL-2 = tested on: SK-MEL-2
SW-620 = tested on: SW-620

SMILES	GI50 (OVCAR-3)	GI50 (SK-OV-3)	GI50 (IGROV-1)	GI50 (HCT-15) [µM]	GI50 (A549)	GI50 (SN12C)	GI50 (MOLT-4)	GI50 (HL-60)	GI50 (M14)	GI50 (SNB-75)	GI50 (SNB-19)	GI50 (SK-MEL-5)	GI50 (UACC-62)	GI50 (OVCAR-4)	GI50 (HOP-62)	GI50 (NCI-H226)	GI50 (SK-MEL-2)	GI50 (SW-620)
O=[N+]([O-])c1ccc(COc2cccc3cccnc23)cc1	5.94 µM (inactive)	32.3 µM (inactive)	22.5 µM (inactive)	7.1	31 µM (inactive)	22.6 µM (inactive)	4.98 µM (inactive)	5.69 µM (inactive)	10.6 µM (inactive)	26.9 µM (inactive)	27.4 µM (inactive)	17.1 µM (inactive)	17.3 µM (inactive)	12.4 µM (inactive)	30 µM (inactive)	18.7 µM (inactive)	14.6 µM (inactive)	
Nc1nc(=O)[nH]c2c1cnn2C1CCCCO1 (centres undefined)			> 100 µM (inactive)	> 100	> 100 µM (inactive)	> 100 µM (inactive)	> 100 µM (inactive)	38.4 µM (inactive)	> 100 µM (inactive)	> 100 µM (inactive)	> 100 µM (inactive)	70.3 µM (inactive)		> 100 µM (inactive)		39.3 µM (inactive)	> 100 µM (inactive)	> 100 µM (inactive)
Cc1cc(-c2ccc(C(=O)C(Cl)(Cl)Cl)[nH]2)on1	25.1 µM (inactive)	60 µM (inactive)		28	33.5 µM (inactive)	16.4 µM (inactive)	2.95 µM (inactive)	21.1 µM (inactive)	35.5 µM (inactive)	31.3 µM (inactive)	40.8 µM (inactive)	32.8 µM (inactive)	28.2 µM (inactive)	35.5 µM (inactive)	11.4 µM (inactive)	22.4 µM (inactive)	23.9 µM (inactive)	50.6 µM (inactive)
CCC(C)CN1C(=O)NC(Cc2ccccc2)C1=O (centres undefined)					> 100 µM (inactive)	> 100 µM (inactive)		> 10 µM (inactive)	> 100 µM (inactive)	> 100 µM (inactive)	> 100 µM (inactive)				> 100 µM (inactive)	> 100 µM (inactive)	> 100 µM (inactive)	> 100 µM (inactive)
O=C(Nc1ccc(Cl)cc1Cl)/C(Cl)=C1/Sc2ccccc2NC1=O		20.8 µM (inactive)	28.6 µM (inactive)	25.9	39.3 µM (inactive)	28.4 µM (inactive)	25.6 µM (inactive)	21.9 µM (inactive)	29.2 µM (inactive)	18 µM (inactive)	34.5 µM (inactive)	19.3 µM (inactive)	25.6 µM (inactive)	24.7 µM (inactive)	39.7 µM (inactive)	25.2 µM (inactive)	15.2 µM (inactive)	33.7 µM (inactive)
CC(C)=CC(=O)Cc1nc2ccccc2[nH]c1=O	> 100 µM (inactive)	> 100 µM (inactive)	> 100 µM (inactive)	> 100	> 100 µM (inactive)	> 100 µM (inactive)	> 100 µM (inactive)	49.5 µM (inactive)	> 100 µM (inactive)	40.3 µM (inactive)	> 100 µM (inactive)	> 100 µM (inactive)	> 100 µM (inactive)	52.2 µM (inactive)	76 µM (inactive)	> 100 µM (inactive)	> 100 µM (inactive)	> 100 µM (inactive)
C=C=CC(NC(=O)c1ccccc1)(C(=O)O)C(F)(F)F (centres undefined)			> 100 µM (inactive)	> 100	> 100 µM (inactive)	> 100 µM (inactive)	> 100 µM (inactive)	> 100 µM (inactive)	> 100 µM (inactive)	> 100 µM (inactive)	> 100 µM (inactive)	> 100 µM (inactive)		> 10 µM (inactive)		> 100 µM (inactive)	> 100 µM (inactive)	> 100 µM (inactive)
COC(=O)[C@H]1N[C@@H](C(=O)OC)C23CCC[C@H]2CC[C@]1(C(OC)OC)C3		> 100 µM (inactive)	> 100 µM (inactive)	> 100	> 100 µM (inactive)	> 100 µM (inactive)	> 100 µM (inactive)	> 100 µM (inactive)	> 100 µM (inactive)	> 100 µM (inactive)	> 100 µM (inactive)	> 100 µM (inactive)	> 100 µM (inactive)	> 100 µM (inactive)	> 100 µM (inactive)	> 100 µM (inactive)	> 100 µM (inactive)	56.2 µM (inactive)
Nc1nc(N)c2nc(-c3ccco3)cnc2n1	56.9 µM (inactive)	76.9 µM (inactive)	43.1 µM (inactive)	> 100	34.5 µM (inactive)	85.5 µM (inactive)	44.5 µM (inactive)	28.3 µM (inactive)	50 µM (inactive)	28.4 µM (inactive)	> 100 µM (inactive)	52.5 µM (inactive)	22.4 µM (inactive)		35.6 µM (inactive)	> 100 µM (inactive)		
